The target in this test is T1, BRD4 BD2 (Homo sapiens, UniProt O60885, Y97A).
T1 construct: BRD4 (1-477) (Y97A) and (Y390A); made in house; host or cells: E. coli (pET15b vector)
The experiment in a line: BRD4 BD2 TR-FRET competition assay. The test is classed as binding. Conditions: mean where stated, n given; read-out: pIC50 in the BRD4 BD2 TR-FRET assay (converted). The protocol: Bromodomain binding was assessed utilising a time resolved fluorescent resonance energy transfer (TR-FRET) competition assay. […] Europium chelate, conjugated to an anti-6*His antibody, was utilised as the donor fluorophore in the TR-FRET pair.
In order to generate a TR-FRET signal, donor fluorophore is excited by a laser at λ337 nm, which subsequently leads to emission at λ618 nm.
In order to monitor differential binding to either BD1 or BD2, single residue mutations of key tyrosines to alanine were made in the acetyl lysine binding pockets. To validate this approach, a double residue mutant tandem domain protein was produced for each of the BET family members.
Final purification was completed by Superdex 200 prep grade size exclusion column. Purified protein was stored at −80° C. in 20 mM HEPES pH 7.5 and 100 mM NaCl.
All assay components were dissolved in an assay buffer composing of 50 mM HEPES pH7.4, 50 mM NaCl, 5% Glycerol, 1 mM DTT and 1 mM CHAPS. […] An equal volume of 3 nM of anti-6*His Europium chelate was added to all wells, followed by a further 30 minute incubation at room temperature. TR-FRET was detected using a Perkin Elmer Multimode plate reader, by exciting the donor fluorophore at λ337 nm and subsequently, after a delay of 50 μsecs, measuring emission of the donor and acceptor fluorophores at λ615 nm and λ665 nm, respectively.
cA four parameter curve fit of the following form was then applied: y=a+((b−a)/(1+(10^x/10^c)^d) • Where ‘a’ is the minimum, ‘b’ is the Hill slope, ‘c’ is the pIC50 and ‘d’ is the maximum.

As to `CNC(=O)c1cc(C(=O)N[C@@H]2C[C@H]2CO)cc2c1O[C@@H](CF)[C@@H]2c1ccccc1` [Example 184, (2R,3R)-2-(fluoromethyl)-N^5-((1R,2R)-2-(hydroxymethyl)cyclopropyl)-N^7-methyl-3-phenyl-2,3-dihydrobenzofuran-5,7-dicarboxamide], the IC50 is 1 to 100 µM.

With `CNC(=O)c1cc(C(=O)NCCCC2CCNCC2(F)F)cc2c1O[C@@H](C)[C@@H]2c1ccccc1` (single isomer, unassigned) [Example 198, (2S,3R)-N5-(3-((S*)-3,3-difluoropiperidin-4-yl)propyl)-N7,2-dimethyl-3-phenyl-2,3-dihydrobenzofuran-5,7-dicarboxamide], the IC50 was 1 to 100 µM.

As for `CNC(=O)c1cc(C(=O)Nc2cncnc2)cc2c1O[C@@H](CF)[C@@H]2c1ccccc1` [Example 200, (2R,3R)-2-(Fluoromethyl)-N^7-methyl-3-phenyl-N^5-(pyrimidin-5-yl)-2,3-dihydrobenzofuran-5,7-dicarboxamide], the IC50 was 1 to 100 µM.

For `CNC(=O)c1cc(C(=O)NCC(C)O)cc2c1O[C@H](C)[C@H]2c1ccccc1` (stereo partly drawn) [Example 6, (2R,3S)—N^5-(2-Hydroxypropyl)-N^7,2-dimethyl-3-phenyl-2,3-dihydrobenzofuran-5,7-dicarboxamide], the IC50 is 1 to 100 µM.

As for `CNC(=O)c1cc(C(=O)Nc2nnn(C)n2)cc2c1O[C@H](CF)[C@H]2c1ccccc1` [Example 174, (2S,3S)-2-(Fluoromethyl)-N^7-methyl-N^5-(2-methyl-2H-tetrazol-5-yl)-3-phenyl-2,3-dihydrobenzofuran-5,7-dicarboxamide], the IC50 was 1 to 100 µM.

Take `CCC(=O)N1C[C@@H]2[C@H](C1)[C@H]2NC(=O)c1cc(C(=O)NC)c2c(c1)[C@@H](c1ccccc1)[C@H](CF)O2` [Example 164, (2R,3R)-2-(Fluoromethyl)-N^7-methyl-3-phenyl-N^5-((1R,5S,6s)-3-propionyl-3-azabicyclo[3.1.0]hexan-6-yl)-2,3-dihydrobenzofuran-5,7-dicarboxamide]: the IC50 was 1 to 100 µM.

On to `CNC(=O)c1cc(C(=O)N[C@H]2[C@@H]3COC[C@@H]32)cc2c1O[C@H](C)[C@H]2c1cccc(OCCO)c1` [Example 85, (2R,3S)—N^5-((1R,5S,6R)-3-Oxabicyclo[3.1.0]hexan-6-yl)-3-(3-(2-hydroxyethoxy)phenyl)-N^7,2-dimethyl-2,3-dihydrobenzofuran-5,7-dicarboxamide], for which the IC50 is 1 to 100 µM.

For `CNC(=O)c1cc(C(=O)Nc2cn(C)nn2)cc2c1O[C@@H](CF)[C@@H]2c1ccccc1` [Example 194, (2R,3R)-2-(fluoromethyl)-N^7-methyl-N^5-(1-methyl-1H-1,2,3-triazol-4-yl)-3-phenyl-2,3-dihydrobenzofuran-5,7-dicarboxamide], the IC50 was 1 to 100 µM.

Regarding `CNC(=O)c1cc(C(=O)NCCc2cccnc2)cc2c1O[C@@H](C)[C@@H]2c1cccc(OCCO)c1` [Example 183, (2S,3R)-3-(3-(2-hydroxyethoxy)phenyl)-N^7,2-dimethyl-N^5-(2-(pyridin-3-yl)ethyl)-2,3-dihydrobenzofuran-5,7-dicarboxamide], the IC50 was 1 to 100 µM.

For the molecule `CNC(=O)c1cc(C(=O)Nc2nncn2C)cc2c1O[C@H](CF)[C@H]2c1ccccc1` [Example 172], the IC50 was 1 to 100 µM.

`CNC(=O)c1cc(C(=O)NCCOC)cc2c1O[C@H](CO)[C@H]2c1cccc(OC)c1` (relative stereo) [Example 34, (2S*,3S*)-2-(Hydroxymethyl)-N^5-(2-methoxyethyl)-3-(3-methoxyphenyl)-N^7-methyl-2,3-dihydrobenzofuran-5,7-dicarboxamide]: the IC50 was 1 to 100 µM.

Take `CNC(=O)c1cc(C(=O)Nc2ccnnc2)cc2c1O[C@@H](CF)[C@@H]2c1ccccc1` [Example 193, (2R,3R)-2-(fluoromethyl)-N^7-methyl-3-phenyl-N^5-(pyridazin-4-yl)-2,3-dihydrobenzofuran-5,7-dicarboxamide]: the IC50 is 1 to 100 µM.

As for `CNC(=O)c1cc(C(=O)NCC(C)O)cc2c1O[C@@H](C)[C@H]2c1ccccc1` (stereo partly drawn) [Example 7, (2S,3S)—N^5-(2-hydroxypropyl)-N^7,2-dimethyl-3-phenyl-2,3-dihydrobenzofuran-5,7-dicarboxamide], the IC50 was 1 to 100 µM.

In the case of `CNC(=O)c1cc(C(=O)N[C@H]2C[C@@H]2CCO)cc2c1O[C@@H](CF)[C@@H]2c1ccccc1` (mixture of isomers) [Example 197, 2R,3R)-2-(fluoromethyl)-N^5-((trans)-2-(2-hydroxyethyl)cyclopropyl)-N^7-methyl-3-phenyl-2,3-dihydrobenzofuran-5,7-dicarboxamide (diastereomeric mixture)], the IC50 was 1 to 100 µM.

Take `CNC(=O)c1cc(C(=O)NCCn2cnnc2)cc2c1O[C@H](CF)[C@H]2c1ccccc1` (relative stereo) [Example 133, (Trans)-N^5-(2-(4H-1,2,4-triazol-4-yl)ethyl)-2-(fluoromethyl)-N^7-methyl-3-phenyl-2,3-dihydrobenzofuran-5,7-dicarboxamide]: the IC50 is 1 to 100 µM.

Take `CNC(=O)c1cc(C(=O)N[C@H]2[C@@H]3CN(C(C)=O)C[C@@H]32)cc2c1O[C@@H](C)[C@@H]2c1ccccc1` [Example 189, (2S,3R)-N^5-((1R,5S,6s)-3-acetyl-3-azabicyclo[3.1.0]hexan-6-yl)-N^7,2-dimethyl-3-phenyl-2,3-dihydrobenzofuran-5,7-dicarboxamide]: the IC50 is 1 to 100 µM.

Consider `CNC(=O)c1cc(C(=O)Nc2ncn(C)n2)cc2c1O[C@@H](CF)[C@@H]2c1ccccc1` [Example 192, (2R,3R)-2-(fluoromethyl)-N^7-methyl-N^5-(1-methyl-1H-1,2,4-triazol-3-yl)-3-phenyl-2,3-dihydrobenzofuran-5,7-dicarboxamide], for which the IC50 was 1 to 100 µM.

Consider `CNC(=O)c1cc(C(=O)N[C@H]2[C@@H]3COC[C@@H]32)cc2c1O[C@@H](C)[C@@H]2c1cccc(OCCO)c1` [Example 181, (2S,3R)-N^5-((1R,5S,6r)-3-oxabicyclo[3.1.0]hexan-6-yl)-3-(3-(2-hydroxyethoxy)phenyl)-N^7,2-dimethyl-2,3-dihydrobenzofuran-5,7-dicarboxamide], for which the IC50 is 1 to 100 µM.

`CNC(=O)c1cc(C(=O)N[C@@H]2C[C@H]2CCO)cc2c1O[C@@H](CF)[C@@H]2c1ccccc1` (mixture of isomers) [Example 196, (2R,3R)-2-(fluoromethyl)-N^5-((trans)-2-(2-hydroxyethyl)cyclopropyl)-N^7-methyl-3-phenyl-2,3-dihydrobenzofuran-5,7-dicarboxamide (diastereomeric mixture)]: the IC50 was 1 to 100 µM.

Turning to `CNC(=O)c1cc(C(=O)NC2CC2)cc2c1O[C@H](C)[C@@H]2c1ccccc1` [Example 103, (2R,3R)-N^5-cyclopropyl-N^7,2-dimethyl-3-phenyl-2,3-dihydrobenzofuran-5,7-dicarboxamide], the IC50 was 1 to 100 µM.

In the case of `CCNC(=O)c1cc(C(=O)NC)c2c(c1)[C@@H](c1ccccc1)[C@H](C)O2` [Example 101, (2S,3R)-N^5-ethyl-N^7,2-dimethyl-3-phenyl-2,3-dihydrobenzofuran-5,7-dicarboxamide], the IC50 was 1 to 100 µM.

In the case of `CNC(=O)c1cc(C(=O)NC2CC2)cc2c1O[C@@H](C)[C@@H]2c1ccccc1` [Example 102, (2S,3R)-N^5-cyclopropyl-N^7,2-dimethyl-3-phenyl-2,3-dihydrobenzofuran-5,7-dicarboxamide], the IC50 is 1 to 100 µM.

In the case of `CNC(=O)c1cc(C(=O)NC2CC2)cc2c1O[C@@H](CO)[C@@H]2c1ccccc1` [Example 104, (2R,3R)-N^5-cyclopropyl-2-(hydroxymethyl)-N^7-methyl-3-phenyl-2,3-dihydrobenzofuran-5,7-dicarboxamide], the IC50 was 1 to 100 µM.

On to `CNC(=O)c1cc(C(=O)NCC(C)O)cc2c1O[C@@H](C)[C@@H]2c1ccccc1` (stereo partly drawn) [Example 107, (2S,3R)-N^5-(2-hydroxypropyl)-N^7,2-dimethyl-3-phenyl-2,3-dihydrobenzofuran-5,7-dicarboxamide], for which the IC50 is 1 to 100 µM.

With `CNC(=O)c1cc(C(=O)N[C@H]2[C@@H]3CN(C(C)=O)C[C@@H]32)cc2c1O[C@@H](CF)[C@@H]2c1ccccc1` [Example 190, (2R,3R)-N^5-((1R,5S,6s)-3-acetyl-3-azabicyclo[3.1.0]hexan-6-yl)-2-(fluoromethyl)-N^7-methyl-3-phenyl-2,3-dihydrobenzofuran-5,7-dicarboxamide], the IC50 was 1 to 100 µM.

On to `CNC(=O)c1cc(C(=O)NC2C[C@H]2CCO)cc2c1O[C@H](CF)[C@H]2c1ccccc1` (stereo partly drawn) [Example 132, (2S,3S)-2-(Fluoromethyl)-N^5-((trans)-2-(2-hydroxyethyl)cyclopropyl)-N^7-methyl-3-phenyl-2,3-dihydrobenzofuran-5,7-dicarboxamide], for which the IC50 is 1 to 100 µM.

On to `CNC(=O)c1cc(C(=O)NC)c2c(c1)[C@@H](c1ccccc1)[C@H](C)O2` [Example 100, (2S,3R)-N^5,N^7,2-trimethyl-3-phenyl-2,3-dihydrobenzofuran-5,7-dicarboxamide], for which the IC50 is 1 to 100 µM.
